Results reported in patent publication US20240174657A1, “SELECTIVE ANGIOTENSIN II RECEPTOR LIGANDS” (priority 2021, published 2024).

Experiments:
CYP3A4 = target: T1, CYP3A4 (Homo sapiens, UniProt P08684); assay: CYP inhibition in human liver microsomes, midazolam substrate; assay type: in vitro ADME; conditions: probe midazolam, read-out: CYP3A4 midazolam Inh %
T1 construct: using isoform-specific substrates incubated with human liver microsomes; tissue Eurofins protocol ITEMG232; host or cells: human liver microsomes

CYP1A = target: T2, CYP1A (Homo sapiens, UniProt P05177); assay: CYP inhibition in human liver microsomes, phenacetin substrate; assay type: in vitro ADME; conditions: probe phenacetin, read-out: CYP1A Inh %
T2 construct: using isoform-specific substrates incubated with human liver microsomes; tissue Eurofins protocol ITEMG232; host or cells: human liver microsomes

[1] = target: T3, human recombinant AT2 receptor (Homo sapiens, UniProt P50052); assay: biochemical; assay type: binding; conditions: test concentrations 1, 10, 100 and 1000 nM; ligand 125I CGP 42112A; C21* = mean of runs; read-out: AT2 GraFit IC50
T3 sequence (P50052 1-363): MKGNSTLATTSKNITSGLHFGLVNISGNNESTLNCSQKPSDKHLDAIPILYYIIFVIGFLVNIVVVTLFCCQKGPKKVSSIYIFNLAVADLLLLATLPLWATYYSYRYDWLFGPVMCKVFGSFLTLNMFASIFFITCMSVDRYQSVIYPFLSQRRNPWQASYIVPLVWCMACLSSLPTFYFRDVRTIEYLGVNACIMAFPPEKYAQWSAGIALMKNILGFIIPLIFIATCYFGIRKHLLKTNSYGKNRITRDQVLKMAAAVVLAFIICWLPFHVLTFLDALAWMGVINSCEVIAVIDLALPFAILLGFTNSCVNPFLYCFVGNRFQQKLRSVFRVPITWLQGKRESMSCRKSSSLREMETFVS

CYP2C8 = target: T4, CYP2C8 (Homo sapiens, UniProt P10632); assay: CYP inhibition in human liver microsomes, paclitaxel and amodiaquine substrates; assay type: in vitro ADME; conditions: probe paclitaxel and amodiaquine, read-out: CYP2C8 Inh %
T4 construct: using isoform-specific substrates incubated with human liver microsomes; tissue Eurofins protocol ITEMG232; host or cells: human liver microsomes
T4 sequence (P10632 1-490): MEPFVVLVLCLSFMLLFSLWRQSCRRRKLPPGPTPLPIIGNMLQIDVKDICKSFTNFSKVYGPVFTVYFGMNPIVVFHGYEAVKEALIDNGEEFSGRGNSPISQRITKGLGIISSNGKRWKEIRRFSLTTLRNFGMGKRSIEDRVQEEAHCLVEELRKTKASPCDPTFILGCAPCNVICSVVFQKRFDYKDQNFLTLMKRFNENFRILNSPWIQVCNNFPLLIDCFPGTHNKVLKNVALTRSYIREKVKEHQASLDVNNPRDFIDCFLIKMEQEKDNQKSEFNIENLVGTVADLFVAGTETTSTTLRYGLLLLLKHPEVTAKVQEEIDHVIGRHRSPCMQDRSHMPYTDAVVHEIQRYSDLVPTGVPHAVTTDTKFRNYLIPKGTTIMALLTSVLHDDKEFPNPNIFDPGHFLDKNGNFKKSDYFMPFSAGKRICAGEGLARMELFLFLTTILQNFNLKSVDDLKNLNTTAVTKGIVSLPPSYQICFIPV

CYP3A4&5 = assay: CYP inhibition in human liver microsomes, testosterone substrate; assay type: in vitro ADME; conditions: probe testosterone, read-out: CYP3A4&5 testosterone Inh %
CYP2D6 = target: T5, CYP2D6 (Homo sapiens, UniProt P10635); assay: CYP inhibition in human liver microsomes, dextromethorphan substrate; assay type: in vitro ADME; conditions: probe dextromethorphan, read-out: CYP2D6 Inh %
T5 construct: tissue Eurofins protocol ITEMG232; host or cells: human liver microsomes

CYP2C9 = target: T6, CYP2C9 (Homo sapiens, UniProt P11712); assay: CYP inhibition in human liver microsomes, diclofenac substrate; assay type: in vitro ADME; conditions: probe diclofenac, read-out: CYP2C9 Inh %
T6 construct: using isoform-specific substrates incubated with human liver microsomes; tissue Eurofins protocol ITEMG232; host or cells: human liver microsomes

[2] = target: T7, human recombinant AT1 receptor (Homo sapiens, UniProt P30556); assay: Binding to AT1 receptor, radiometric scintillation assay (Eurofins ITEM24)
T7 construct: Eurofins protocol ITEM24
T7 sequence (P30556 1-359): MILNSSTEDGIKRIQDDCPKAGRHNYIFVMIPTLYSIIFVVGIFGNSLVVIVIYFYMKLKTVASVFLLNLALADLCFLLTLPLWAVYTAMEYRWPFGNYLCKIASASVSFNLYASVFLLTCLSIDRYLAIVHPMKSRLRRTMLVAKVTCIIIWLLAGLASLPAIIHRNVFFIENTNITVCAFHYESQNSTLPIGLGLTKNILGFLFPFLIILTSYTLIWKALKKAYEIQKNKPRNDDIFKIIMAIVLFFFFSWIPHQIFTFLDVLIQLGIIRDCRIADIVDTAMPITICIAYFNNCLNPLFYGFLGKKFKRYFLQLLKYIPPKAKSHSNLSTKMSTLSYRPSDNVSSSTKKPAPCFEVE

CYP2B6 = target: T8, CYP2B6 (Homo sapiens, UniProt P20813); assay: CYP inhibition in human liver microsomes, bupropion substrate; assay type: in vitro ADME; conditions: probe bupropion, read-out: CYP2B6 Inh %
T8 construct: using isoform-specific substrates incubated with human liver microsomes; tissue Eurofins protocol ITEMG232; host or cells: human liver microsomes
T8 sequence (P20813 1-491): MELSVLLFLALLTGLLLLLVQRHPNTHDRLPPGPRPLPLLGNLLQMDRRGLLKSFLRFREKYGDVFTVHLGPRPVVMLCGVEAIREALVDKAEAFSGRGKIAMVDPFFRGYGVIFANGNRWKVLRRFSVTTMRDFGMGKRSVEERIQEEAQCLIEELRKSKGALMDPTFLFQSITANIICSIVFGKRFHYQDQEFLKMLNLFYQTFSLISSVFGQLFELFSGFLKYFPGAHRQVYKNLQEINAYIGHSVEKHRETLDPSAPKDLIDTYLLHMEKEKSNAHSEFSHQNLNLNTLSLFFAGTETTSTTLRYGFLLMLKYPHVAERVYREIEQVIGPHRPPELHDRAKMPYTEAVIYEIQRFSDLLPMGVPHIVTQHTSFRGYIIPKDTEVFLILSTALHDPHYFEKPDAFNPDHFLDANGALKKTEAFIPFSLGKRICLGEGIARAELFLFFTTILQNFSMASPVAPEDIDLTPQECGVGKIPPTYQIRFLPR

CYP2C19 = target: T9, CYP2C19 (Homo sapiens, UniProt P33261); assay: CYP inhibition in human liver microsomes, omeprazole substrate; assay type: in vitro ADME; conditions: probe omeprazole, read-out: CYP2C19 Inh %
T9 construct: using isoform-specific substrates incubated with human liver microsomes; tissue Eurofins protocol ITEMG232; host or cells: human liver microsomes

[3] = Metabolic stability in pooled human liver microsomes; assay type: in vitro ADME; conditions: human liver microsomes 0.5 mg/mL, 1 uM test compound, 37° C.; for T1/2, + NaDPH: with 1 mM NADPH; for half-life at 1 uM: pooled human liver microsomes, without NADPH, read-out: T1/2, no NaDPH
Method: Pooled human liver microsomes in PBS at a concentration of 0.5 mg/mL was incubated with or without 1 mM NADPH for 70 min at 37° C. Test compound was added after 10 minutes to a final concentration of 1 uM. Samples were withdrawn at 0, 5, 15 and 60 minutes and added to test tubes containing acetonitrile, to stop the reaction, and with terfenadine, used as internal standard. After centrifugation at 10 000×g for 5 minutes the supernatant was diluted 1:1 with 1% formic acid. Samples were separated on a reverse phase column and detected by triple quadrupole MSMS (Agilant model 6540). The concentration of the parent compound at the different time points was measured with an external standard curve using terfenadine as internal standard and the initial metabolic rate in the presence or absence of NADPH calculated.

T6 sequence (P11712 whole entry, canonical isoform): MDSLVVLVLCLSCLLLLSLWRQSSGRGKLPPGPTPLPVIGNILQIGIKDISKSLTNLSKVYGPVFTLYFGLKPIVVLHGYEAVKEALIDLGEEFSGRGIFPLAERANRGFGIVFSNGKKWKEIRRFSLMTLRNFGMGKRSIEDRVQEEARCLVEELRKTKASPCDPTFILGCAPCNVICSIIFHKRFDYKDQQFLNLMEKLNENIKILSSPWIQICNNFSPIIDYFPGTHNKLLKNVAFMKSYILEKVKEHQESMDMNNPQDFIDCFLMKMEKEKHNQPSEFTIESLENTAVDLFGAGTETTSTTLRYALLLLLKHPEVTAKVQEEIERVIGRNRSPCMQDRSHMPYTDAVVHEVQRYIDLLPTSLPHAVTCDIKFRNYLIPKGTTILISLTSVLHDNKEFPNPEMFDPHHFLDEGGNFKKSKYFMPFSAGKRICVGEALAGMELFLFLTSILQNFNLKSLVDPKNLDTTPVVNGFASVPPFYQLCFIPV
T2 sequence (P05177 whole entry, canonical isoform): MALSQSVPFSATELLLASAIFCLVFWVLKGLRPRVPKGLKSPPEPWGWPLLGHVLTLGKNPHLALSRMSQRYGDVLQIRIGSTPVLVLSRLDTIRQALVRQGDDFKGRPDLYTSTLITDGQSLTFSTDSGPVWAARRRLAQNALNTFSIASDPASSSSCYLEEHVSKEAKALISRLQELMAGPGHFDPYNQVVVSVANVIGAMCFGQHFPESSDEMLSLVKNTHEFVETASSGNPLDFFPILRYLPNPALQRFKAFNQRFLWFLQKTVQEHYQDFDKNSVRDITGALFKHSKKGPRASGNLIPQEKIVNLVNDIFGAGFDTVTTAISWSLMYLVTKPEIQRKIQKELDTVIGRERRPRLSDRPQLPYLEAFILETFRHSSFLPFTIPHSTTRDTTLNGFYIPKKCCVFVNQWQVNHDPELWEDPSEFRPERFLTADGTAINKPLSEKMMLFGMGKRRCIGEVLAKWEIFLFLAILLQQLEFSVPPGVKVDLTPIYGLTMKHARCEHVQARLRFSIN
T1 sequence (P08684 whole entry, canonical isoform): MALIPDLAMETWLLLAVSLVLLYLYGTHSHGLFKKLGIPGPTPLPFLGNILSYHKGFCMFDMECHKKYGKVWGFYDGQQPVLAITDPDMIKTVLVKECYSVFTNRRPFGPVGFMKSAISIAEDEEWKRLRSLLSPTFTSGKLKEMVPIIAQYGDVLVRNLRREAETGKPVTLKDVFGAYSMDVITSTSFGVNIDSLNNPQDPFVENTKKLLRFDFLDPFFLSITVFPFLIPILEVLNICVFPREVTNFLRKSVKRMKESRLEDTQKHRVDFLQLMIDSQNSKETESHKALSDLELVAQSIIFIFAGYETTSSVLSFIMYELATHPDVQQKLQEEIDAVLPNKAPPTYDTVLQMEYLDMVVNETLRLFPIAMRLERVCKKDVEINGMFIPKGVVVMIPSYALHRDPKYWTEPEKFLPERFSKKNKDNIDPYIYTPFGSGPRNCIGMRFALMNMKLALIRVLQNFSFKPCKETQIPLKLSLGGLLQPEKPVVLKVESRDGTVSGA
T9 sequence (P33261 whole entry, canonical isoform): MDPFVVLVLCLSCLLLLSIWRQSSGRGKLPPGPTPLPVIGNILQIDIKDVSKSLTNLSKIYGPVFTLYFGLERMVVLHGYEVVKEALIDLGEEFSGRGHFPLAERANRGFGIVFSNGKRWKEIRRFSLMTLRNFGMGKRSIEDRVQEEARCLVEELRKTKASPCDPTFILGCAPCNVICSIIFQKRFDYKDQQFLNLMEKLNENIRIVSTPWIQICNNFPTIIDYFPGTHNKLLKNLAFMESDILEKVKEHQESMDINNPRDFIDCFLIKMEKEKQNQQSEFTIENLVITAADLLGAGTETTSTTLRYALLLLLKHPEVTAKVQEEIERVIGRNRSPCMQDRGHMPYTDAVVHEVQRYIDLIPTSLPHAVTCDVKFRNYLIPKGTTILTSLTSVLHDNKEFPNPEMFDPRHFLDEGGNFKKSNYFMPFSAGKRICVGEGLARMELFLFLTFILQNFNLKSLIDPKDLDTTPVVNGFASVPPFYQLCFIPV
T5 sequence (P10635 whole entry): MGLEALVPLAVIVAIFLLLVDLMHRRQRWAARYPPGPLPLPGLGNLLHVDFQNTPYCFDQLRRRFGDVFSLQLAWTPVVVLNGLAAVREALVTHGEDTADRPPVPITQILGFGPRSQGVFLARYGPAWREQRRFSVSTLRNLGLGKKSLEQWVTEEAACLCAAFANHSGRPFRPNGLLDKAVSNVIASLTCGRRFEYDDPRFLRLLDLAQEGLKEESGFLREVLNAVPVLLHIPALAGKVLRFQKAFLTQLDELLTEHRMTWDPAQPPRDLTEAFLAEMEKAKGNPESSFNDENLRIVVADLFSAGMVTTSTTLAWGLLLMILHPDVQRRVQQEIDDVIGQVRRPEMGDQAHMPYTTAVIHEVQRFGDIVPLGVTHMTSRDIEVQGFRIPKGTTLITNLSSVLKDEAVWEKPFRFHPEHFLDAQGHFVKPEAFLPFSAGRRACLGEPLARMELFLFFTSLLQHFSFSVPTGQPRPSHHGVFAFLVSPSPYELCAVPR

| Compound | inhibition at 10 µM (CYP3A4) [%] | inhibition at 10 µM (CYP1A) [%] | IC50 [1] [µM] | inhibition at 10 µM (CYP2C8) [%] | inhibition at 10 µM (CYP3A4&5) [%] | inhibition at 10 µM (CYP2D6) [%] | inhibition at 10 µM (CYP2C9) [%] | IC50 [2] [µM] | inhibition at 10 µM (CYP2B6) [%] | inhibition at 10 µM (CYP2C19) [%] | T1/2, + NaDPH [3] [h] | half-life at 1 uM [3] [h] |
| --- | --- | --- | --- | --- | --- | --- | --- | --- | --- | --- | --- | --- |
| Cc1nccn1Cc1ccc(-c2cc(CC(C)C)sc2S(=O)(=O)NC(=O)NCCO)cc1F [Example 1, 1-[[3-[3-Fluoro-4-[(2-methylimidazol-1-yl)methyl]phenyl]-5-isobutyl-2-thienyl]sulfonyl]-3-(2-hydroxyethyl)urea] | 7.2 | -26.3 | 0.005 | 35.2 | 12.4 | 5.3 | 5.5 | 24 | 6.2 | 6.5 | >1 | > 1 |
| Cc1nccn1Cc1ccc(-c2cc(CC(C)C)sc2S(=O)(=O)NC(=O)NCCCO)cc1F [Example 2, 1-[[3-[3-Fluoro-4-[(2-methylimidazol-1-yl)methyl]phenyl]-5-isobutyl-2-thienyl]sulfonyl]-3-(3-hydroxypropyl)urea] | 25.3 | -0.9 | 0.02 | 30.9 | 18.4 | 13.6 | 16.5 | 21 | 3.1 | 26.3 | >1 | > 1 |
| Cc1nccn1Cc1ccc(-c2cc(CC(C)C)sc2S(=O)(=O)NC(=O)NCC(C)(C)O)cc1F [Example 3, 1-[[3-[3-Fluoro-4-[(2-methylimidazol-1-yl)methyl]phenyl]-5-isobutyl-2-thienyl]sulfonyl]-3-(2-hydroxy-2-methyl-propyl)urea] | 52.8 | 15.5 | 0.0054 | 28 | 29.7 | 38 | 31.8 | 23 | 22.6 | 21.2 | >1 | > 1 |
| Cc1nccn1Cc1ccc(-c2cc(CC(C)C)sc2S(=O)(=O)NC(=O)NCCO)c(F)c1 [Example 4, 1-[[3-[2-Fluoro-4-[(2-methylimidazol-1-yl)methyl]phenyl]-5-isobutyl-2-thienyl]sulfonyl]-3-(2-hydroxyethyl)urea] | 24.5 | -9.7 | 0.0455 | 10.4 | 18.9 | 7.6 | 11.9 | 34 | 3.2 | 29.6 |  |  |
